Assay [1] addresses membrane bound oxidase of stimulated phagocytes (Homo sapiens, UniProt P04839). The note with it: substrate of the membrane bound oxidase; generally accepted (background); cited from earlier work.
For assay [2] the following is noted: intravenous 5 mg in conjunction with steroid therapy; compared to steroid therapy alone. As for the experimental part:
Individuals suffering from bone loss associated with steroid therapy, including treatment with corticosteroids, such as betamethasone, budesonide, cortisone dexamethasone, hydrocortisone, methylprednisolone, prednisolone, prednisone, and triamcinolone, are identified. In conjunction with steroid therapy, the individuals are intravenously administered 5 mg of a ROS scavenger or a placebo.

The nature of assay [3]: Example 7: bone loss associated with cancer treatments (hormone therapy). The format is in vivo. Conditions: oral 100 mg in conjunction with hormone therapy; compared to placebo group. As for the experimental part:
Individuals suffering from cancer and being treated with hormone therapy are identified. The individuals are divided into 11 groups of 10 each. In conjunction with hormone therapy, Groups 1 through 10 are orally administered 100 mg of histamine, histamine agonists, histamine salts, histamine prodrugs, NADPH-oxidase inhibitors, histamine dihydrochloride, histamine phosphate, serotonin, 5HT agonists, or histamine receptor agonists, respectively. Group 11 receives a placebo in conjunction with hormone therapy.

Assay [4] is described as follows: Example 1: inhibition of bone resorption in subjects with bone loss. The note with it: effective dose; Groups 1 through 10 compared to placebo Group 11. It counts as in vivo. As for the experimental part: Subjects suffering from bone loss exacerbated by osteoclast-produced ROS are identified. The subjects are separated into 11 groups of 10 subjects each. […] Subjects in Group 11 are administered a placebo.

For assay [5] the following is noted: oral 50 mg, 100 mg, 200 mg, 1,000 mg; relative to placebo group. As for the experimental part:
Individual suffering from various types of osteoporosis, including type I and type II osteoporosis, age-related osteoporosis, disuse osteoporosis, diabetes-related osteoporosis, and steroid-related osteoporosis, are identified. The individuals are separated into 5 groups of 20 individuals. Individuals in Groups 1 through 4 are orally administered 50 mg, 100 mg, 200 mg, and 1,000 mg of histamine, respectively. Individuals in […] are administered a placebo. The rate of bone loss is reduced for Groups 1 through 4 relative to the rate of bone loss for the placebo group.

The conditions of assay [6]: oral 125 mg; versus placebo. The method, then:
Individuals suffering from bone loss associated with primary and secondary hyperparathyroidism are identified. The individuals are orally administered 125 mg of histamine or a placebo.

For assay [7] the following is noted: oral 75 mg in conjunction with antibiotics; versus antibiotics alone. As for the experimental part: Individuals suffering from osteomyelitis are identified. The individuals are orally administered 75 mg of histamine phosphate in conjunction with antibiotics or antibiotics alone.

Read-outs that look alike come from different tables or passages of the source.

Broadly, the Km is the concentration of substrate that gives half-maximal velocity. For the molecule `NC(=O)C1=CN([C@@H]2O[C@H](COP(=O)(O)OP(=O)(O)OC[C@H]3O[C@@H](n4cnc5c(N)ncnc54)[C@H](OP(=O)(O)O)[C@@H]3O)[C@@H](O)[C@H]2O)C=CC1` [NADPH], the Km in assay [1] is 45 µM.

For `Cl.Cl.NCCc1c[nH]cn1` [histamine dihydrochloride], the bone loss entry in assay [2] is reported as “reduced”. Moreover, in assay [3], the bone healing entry was “accelerated” and the bone loss entry is “inhibited”. Besides, in assay [4], the “rate of bone healing” value is listed as “accelerated” and the “rate of bone loss” value was “reduced”.

As to `NCCc1c[nH]c2ccc(O)cc12` [serotonin], in assay [3], the bone healing entry is recorded as “accelerated” and the bone loss entry is reported as “inhibited”. Further, in assay [4], the “rate of bone healing” value is listed as “accelerated” and the “rate of bone loss” value was “reduced”.

Consider `NC(=O)C1=CN([C@@H]2O[C@H](COP(=O)(O)OP(=O)(O)OC[C@H]3O[C@@H](n4cnc5c(N)ncnc54)[C@H](O)[C@@H]3O)[C@@H](O)[C@H]2O)C=CC1` [NADH], for which the Km in assay [1] was 450 µM.

Take `NCCc1c[nH]cn1` [histamine]: the “rate of bone loss” value in assay [5] is given as “reduced”. Further, in assay [3], the bone healing entry is on record as “accelerated” and the bone loss result is on record as “inhibited”. Besides, in assay [4], the “rate of bone healing” value is “accelerated” and the “rate of bone loss” value is on record as “reduced”. In assay [6], the “rate of bone loss” value is on record as “reduced” and the “trauma to bone cells” value is listed as “minimized”.

For `NCCc1c[nH]cn1.O=P(O)(O)O` [histamine phosphate], the bone healing entry in assay [7] was “accelereated”. Further, in assay [3], the bone healing result is given as “accelerated” and the bone loss result was “inhibited”. Besides, in assay [4], the “rate of bone healing” value is listed as “accelerated” and the “rate of bone loss” value is “reduced”.

(Values after patent publication US20050171192A1, “Use of histamine to treat bone disease” (priority 2003, published 2005).)
